# Reference: patent US20240228536A1, “PEPTIDES FOR USE IN SKIN AND HAIR PIGMENTATION” (Follicum AB, priority 2020, published 2024)
# How the values were obtained:
# PMEL = assay: qPCR expression analysis of melanogenesis markers in Melanoderm SEs; assay type: cell-based, human; details: 0.4% in formulation B, day 7, against formulation B treatment only (p=0.015, t-test)
# Method: (§1) RNA stabilized Melanoderm tissue from Example 13 was thawed on ice RNA extracted using the RNeasy extraction kit (Qiagen, UK) according to manufacturer's instructions.
# (§2) To ensure efficient lysis, tissue was ground in lysis buffer in a RNase-free 1.5 ml centrifuge tube using a sterile microbiological colony picker then passed through a Qiashredder column (Qiagen, UK) before lysate was purified. To prevent carry over of gDNA to qPCR, on-column digestion using 80 μl of DNase enzyme was added (DNase on column digestion kit, Sigma, UK). RNA was eluted in a 50 μl volume of sterile elution buffer and stored at −80° C. until use. For cDNA reverse transcription 8 μl of RNA was added as template in a 20 μl final volume in a 96-well plate using the iScript Advanced cDNA Synthesis Kit for RT-qPCR (Bio-Rad, UK) according to manufacturer's instructions. Low profile 96-well PCR plates and seals for qPCR reactions were obtained from Thermofisher. For qPCR 1 μl of cDNA from each test sample and relevant controls were amplified in a 96-well plate using SsoAdvanced Universal SYBR® Green Supermix and target pigmentation specific gene primers (pigment cell-specific pre-melanosomal protein (PMEL), Tyrosinase-related protein-1 (TYRP-1) and Tyrosinase (TYR)) in a 20 μl final reaction volume. Prevalidated primers, templates and gDNA controls were sourced from Bio-Rad, UK. Prevalidated template cDNA was included as a positive control for each gene tested. Ribosomal protein-20 (RPS20) was used as a housekeeping gene control. Samples were amplified using an Applied Biosystems StepOne Plus qPCR machine and associated software. Differences in fold gene expression between treatments and untreated controls were calculated from RPS20 reference gene normalised Ct values using the ΔΔCt method (2-(ΔΔCt)). Final expression values were log 10 transformed prior to statistical analysis (unpaired t-test) using Prism software.
# TYRP-1 = assay: as above; assay type: cell-based, human; details: 0.4% in formulation B, day 7, against formulation B only (p=0.005, t-test)
# Method: as §1, §2
# [1] = Stability study of compositions comprising peptides 1 and 4 (HPLC purity); assay type: physicochemical; details: water-free formulations A, B and C, 20° C., 12 weeks
# Method: Samples of the separate formulations were stored at 20° C. […] Analysis of peptide purity in ointment and PBS solutions was performed using standard HPLC-UV-DA methods when the samples were freshly prepared (time 0) and after 1, 2, 6, 8 and 12 weeks.
substance,measurement,setting,value
Asn-Ala-Ala-Met (NAAM; (1)..(4) Peptide 4),relative expression of PMEL (qPCR),PMEL,greatest increase in expression which was significant
same,relative expression of TYRP-1 (qPCR),TYRP-1,moderately significant increase in expression
Asn-Ala-His-Met (NAHM; (1)..(4) Peptide 1),stability (peptide purity by HPLC),[1],stable
